Experimental data taken from patent US20160367578A1, “METHODS AND COMPOSITIONS FOR ERADICATING LEUKEMIC CELLS” (priority 2013, published 2016).

Assays:
normal bone marrow cells = assay: Co-culture viability with enoxolone, normal bone marrow cells (myeloid vs. non-myeloid); assay type: cell-based; design: dose or concentration left out as unconfirmed; conditions: […] μM, 20 hours
Description: (§1) Primary MLL-AF9^LKS acute myeloid leukemia cells (red bars) were co-cultured with normal BM mononuclear cells (blue bars). Cells in co-culture were exposed to enoxolone for 20 hours (at 0, 5, 20, 50, 100 and 200 μM) and then cell viability was analyzed by flow cytometry (live leukemia cells=GFP+/7AAD−; live normal cells=GFP−/7AAD−).
Cells in co-culture were exposed to enoxolone for 20 hours (at 0, 5, 20, 50, 100 and 200 μM).

[1] = system: Primary MLL-AF9 LKS acute myeloid leukemia cells; assay: Co-culture viability with enoxolone, leukemia cells (GFP+/7AAD-); assay type: cell-based; conditions: 20 hours, 0, 5, 20, 50, 100 and 200 μM
Description: as §1

Structure (SMILES): CC1(C)[C@@H](O)CC[C@]2(C)[C@H]3C(=O)C=C4[C@@H]5C[C@@](C)(C(=O)O)CC[C@]5(C)CC[C@@]4(C)[C@]3(C)CC[C@@H]12 [enoxolone, 18β-glycyrrhetinic acid]
- toxicity to normal non-myeloid cells (normal bone marrow cells): toxic to normal non-myeloid cells
- leukemia cell eradication in co-culture with normal BM mononuclear cells [1]: selective leukemia cell eradication
